# Assay results from US20250163104A1, “MACROCYCLIC IMMUNOMODULATORS” (priority 2021, published 2025).
# *1 amine or outer side, *2 acyl side, *3 side chain or, on linkers, in order; H or OH if unused. Where a SMILES comes first, the peptide text is derived from it. Bridges are numbered along the chain shown (N, C = ends). [ ]: non-standard residue; d: D form. The star is where a group is joined. X3 = O=C([C@H](CCCNC[C@@H](O)[C@H](O)[C@H](O)[C@@H](O)[C@H](O)CO)N[*:1])[*:2]; Phe(3-CF3) = N[C@@H](Cc1cccc(C(F)(F)F)c1)C(=O)O; Ala(morpholin-4-yl) = N[C@@H](CN1CCOCC1)C(=O)O; Phe(4-COOH) = N[C@@H](Cc1ccc(C(=O)O)cc1)C(=O)O; Phe(4-CH2NH2) = NCc1ccc(C[C@H](N)C(=O)O)cc1; Bip = N[C@@H](Cc1ccc(-c2ccccc2)cc1)C(=O)O; Phe(4-CN) = N#Cc1ccc(C[C@H](N)C(=O)O)cc1; Phe(3-Me) = Cc1cccc(C[C@H](N)C(=O)O)c1; Abu(3S-NH2) = C[C@H](N)[C@H](N)C(=O)O; Val(3-OH) = CC(C)(O)[C@H](N)C(=O)O; 4Pal = N[C@@H](Cc1ccncc1)C(=O)O; 3Thi = N[C@@H](Cc1ccsc1)C(=O)O; Cha = N[C@@H](CC1CCCCC1)C(=O)O; Cit = NC(=O)NCCC[C@H](N)C(=O)O; Tle = CC(C)(C)[C@H](N)C(=O)O; Hpra = C#CCC[C@H](N)C(=O)O; Carboxymethyl = O=C(O)C*; Orn = NCCC[C@H](N)C(=O)O; Pra = C#CC[C@H](N)C(=O)O; Dab = NCC[C@H](N)C(=O)O; Nva = CCC[C@H](N)C(=O)O; Abu = CC[C@H](N)C(=O)O; Dap = NC[C@H](N)C(=O)O; Ac3c = NC1(C(=O)O)CC1; Propargyl = C#CC*
# Biological target: T1, human PD-1 / PD-L1-Ig binding on Jurkat cell line over-expressing human PD-1 (Jurkat-PD-1) (Homo sapiens, UniProt Q15116)
# T1 construct: expressed in transfected cells; host or cells: Jurkat
# Experiment: Jurkat-PD-1 Cell Binding High-Content Screening Assay (CBA)
# Format: cell-based
# Details: Jurkat-PD-1 cells, PE-labeled PD-L1-Ig 20 nM final; read-out: Jurkat HPD1_PDL1 IC50
# Outline: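 Binding of fluorescent PD-L1-Ig (phycoerythrin linked via the Ig tag, 20 nM final) to PD-1-overexpressing Jurkat cells was imaged after a 2 h, 37° C compound pretreatment and 1 hour ligand incubation.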
# T1 sequence (Q15116 25-288): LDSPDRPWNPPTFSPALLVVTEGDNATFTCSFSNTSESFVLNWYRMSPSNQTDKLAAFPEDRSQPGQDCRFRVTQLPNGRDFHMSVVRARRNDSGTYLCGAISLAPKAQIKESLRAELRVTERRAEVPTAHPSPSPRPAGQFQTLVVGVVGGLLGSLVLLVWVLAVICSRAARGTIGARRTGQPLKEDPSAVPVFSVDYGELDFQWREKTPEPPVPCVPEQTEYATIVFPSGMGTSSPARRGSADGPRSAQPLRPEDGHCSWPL
row,Compound,IC50
1,CC(C)C[C@H]1NC(=O)[C@H](CCCN)NC(=O)[C@H](CCCNC(N)=O)NC(=O)[C@H](Cc2ccc(-c3ccccc3)cc2)NC(=O)[C@H](C(C)C)NC(=O)[C@H](Cc2c[nH]c3ccccc23)NC(=O)[C@H](CC(=O)O)NC(=O)[C@H](Cc2ccncc2)NC(=O)[C@H](Cc2ccc(OCC(=O)O)cc2)NC(=O)CSC[C@@H](C(=O)N[C@@H](C)C(N)=O)NC(=O)[C@H]([C@@H](C)O)NC(=O)[C@H](C(C)C)NC(=O)[C@H](CC2CCCCC2)NC(=O)[C@H](CCN)NC1=O [Compound 1326],12.1 nM
2,C#CCC[C@@H]1NC(=O)[C@@H](CC(C)C)NC(=O)[C@H](CCCN)NC(=O)[C@H](C(C)C)NC(=O)[C@H](Cc2ccc(-c3ccccc3)cc2)NC(=O)[C@H](C(C)C)NC(=O)[C@H](Cc2cccc(C)c2)NC(=O)[C@H](CC(=O)O)NC(=O)[C@H](Cc2ccc(C(=O)O)cc2)NC(=O)[C@H](CN)NC(=O)CSC[C@@H](C(=O)N[C@@H](CCN)C(N)=O)NC(=O)[C@H]([C@@H](C)O)NC(=O)[C@H](C(C)C)NC(=O)[C@H](CC2CCCCC2)NC1=O [Compound 2025] ({CH2CO}-[Dap][Phe(4-COOH)]D[Phe(3-Me)]V[Bip]V[Orn][dL][Hpra][Cha]VTC[Dab]-NH2; thioether N-14),15 nM
3,CC[C@H](C)[C@@H]1NC(=O)[C@H](Cc2ccc(-c3ccccc3)cc2)NC(=O)[C@H](C(C)C)NC(=O)[C@H](Cc2c[nH]c3ccccc23)NC(=O)[C@H](CC(=O)O)NC(=O)[C@H](Cc2ccc(O)cc2)NC(=O)[C@H](CC(N)=O)NC(=O)CSC[C@@H](C(=O)NCC(N)=O)NC(=O)[C@H]([C@@H](C)O)NC(=O)[C@H](C(C)C)NC(=O)[C@H](CC(C)C)NC(=O)[C@H](CCN)NC(=O)[C@@H](CC(C)C)NC(=O)[C@H](CCN)NC1=O [Compound 1126] ({CH2CO}-NYDWV[Bip]I[Dab][dL][Dab]LVTCG-NH2; thioether N-14),23.9 nM
4,CC(C)C[C@@H]1NC(=O)[C@H](Cc2c[nH]c3ccccc23)NC(=O)[C@H](CC(=O)O)NC(=O)[C@H](Cc2ccc(CN)cc2)NC(=O)[C@H](Cc2ccccc2)NC(=O)CSC[C@@H](C(=O)N[C@@H](C)C(N)=O)NC(=O)[C@H](CO)NC(=O)[C@H](C(C)C)NC(=O)[C@H](CC2CCCCC2)NC(=O)[C@H](CN)NC(=O)[C@@H](CC(C)C)NC(=O)[C@H](CCCN)NC(=O)[C@H](CCCNC(N)=O)NC(=O)[C@H](Cc2ccc(-c3ccccc3)cc2)NC1=O [Compound 2503] ({CH2CO}-F[Phe(4-CH2NH2)]DWL[Bip][Cit][Orn][dL][Dap][Cha]VSCA-NH2; thioether N-14),33 nM
5,C#CC[C@H](NC(=O)[C@@H]1CSCC(=O)N[C@@H](CCC)C(=O)N[C@@H](Cc2ccc(OCC(=O)O)cc2)C(=O)N[C@@H](CC(=O)O)C(=O)N[C@@H](Cc2cccc(C)c2)C(=O)N[C@@H](Cc2ccc(OCC(=O)O)cc2)C(=O)N[C@@H](Cc2ccc(-c3ccccc3)cc2)C(=O)N[C@@H](Cc2ccc(OCC(=O)O)cc2)C(=O)N[C@@H](CCCNC[C@@H](O)[C@H](O)[C@H](O)[C@@H](O)[C@H](O)CO)C(=O)N[C@H](CC(C)C)C(=O)N[C@@H](CCC)C(=O)N[C@@H](CC2CCCCC2)C(=O)N[C@@H](C(C)C)C(=O)N[C@@H](CCC(=O)O)C(=O)N1)C(=O)O [Compound 2698] ({CH2CO}-[Nva]Y(Carboxymethyl)D[Phe(3-Me)]Y(Carboxymethyl)[Bip]Y(Carboxymethyl)[X3][dL][Nva][Cha]VEC[Pra]-OH; thioether N-14),129 nM
6,Cc1cccc(C[C@@H]2NC(=O)[C@H](CC(=O)O)NC(=O)[C@H](Cc3ccc(C(=O)O)cc3)NC(=O)[C@H](Cc3ccncc3)NC(=O)CSC[C@@H](C(N)=O)NC(=O)[C@H](CC(N)=O)NC(=O)[C@H](C(C)C)NC(=O)[C@H](CC3CCCCC3)NC(=O)[C@H](CCN)NC(=O)[C@@H](CC(C)C)NC(=O)[C@H](CCCN)NC(=O)[C@H](CCCNC(N)=O)NC(=O)[C@H](Cc3ccc(-c4ccccc4)cc3)NC(=O)[C@H](C(C)C)NC2=O)c1 [Compound 2271] ({CH2CO}-[4Pal][Phe(4-COOH)]D[Phe(3-Me)]V[Bip][Cit][Orn][dL][Dab][Cha]VNC-NH2; thioether N-14),16 nM
7,CC(C)C[C@H]1NC(=O)[C@H](CCCN)NC(=O)[C@H](CCC(=O)O)NC(=O)[C@H](Cc2ccc(-c3ccccc3)cc2)NC(=O)[C@H](C(C)C)NC(=O)[C@H](Cc2c[nH]c3ccccc23)NC(=O)[C@H](CC(=O)O)NC(=O)[C@H](Cc2ccc(C#N)cc2)NC(=O)[C@H](Cc2ccccc2)NC(=O)CSC[C@@H](C(=O)N[C@@H](C)C(N)=O)NC(=O)[C@H]([C@@H](C)O)NC(=O)[C@H](C(C)C)NC(=O)[C@H](CC2CCCCC2)NC(=O)[C@H](CCN)NC1=O [Compound 2186] ({CH2CO}-F[Phe(4-CN)]DWV[Bip]E[Orn][dL][Dab][Cha]VTCA-NH2; thioether N-14),45.2 nM
8,CC(C)[C@@H]1NC(=O)[C@H](Cc2c[nH]c3ccccc23)NC(=O)[C@H](CC(=O)O)NC(=O)[C@H](Cc2ccc(C(=O)O)cc2)NC(=O)[C@H](Cc2ccncc2)NC(=O)CSC[C@@H](C(=O)N[C@@H](C)C(N)=O)NC(=O)[C@H]([C@@H](C)O)NC(=O)[C@H](C(C)C)NC(=O)[C@H](CC2CCCCC2)NC(=O)[C@H](CCN)NC(=O)[C@@H](Cc2ccccc2)NC(=O)[C@H](CCCN)NC(=O)[C@H](CCC(=O)O)NC(=O)[C@H](Cc2ccc(-c3ccccc3)cc2)NC1=O [Compound 1432] ({CH2CO}-[4Pal][Phe(4-COOH)]DWV[Bip]E[Orn][dF][Dab][Cha]VTCA-NH2; thioether N-14),17.4 nM

# Now those with a lower IC50, led by results:
row,IC50,Compound
1,11.7 nM,Cc1cccc(C[C@@H]2NC(=O)[C@H](CC(=O)O)NC(=O)[C@H](Cc3ccc(OCC(=O)O)cc3)NC(=O)[C@H](Cc3ccncc3)NC(=O)CSC[C@@H](C(=O)NC3(C(N)=O)CC3)NC(=O)[C@H](CO)NC(=O)[C@H](C(C)C)NC(=O)[C@H](CC3CCCCC3)NC(=O)[C@H](CCN)NC(=O)[C@@H](CC(C)C)NC(=O)[C@H](CCCN)NC(=O)[C@H](Cc3ccc(OCC(=O)O)cc3)NC(=O)[C@H](Cc3ccc(-c4ccccc4)cc3)NC(=O)[C@H](Cc3ccc(OCC(=O)O)cc3)NC2=O)c1 [Compound 2064] ({CH2CO}-[4Pal]Y(Carboxymethyl)D[Phe(3-Me)]Y(Carboxymethyl)[Bip]Y(Carboxymethyl)[Orn][dL][Dab][Cha]VSC[Ac3c]-NH2; thioether N-14)
2,11.7 nM,Cc1cccc(C[C@@H]2NC(=O)[C@H](CC(=O)O)NC(=O)[C@H](Cc3ccc(C(=O)O)cc3)NC(=O)[C@H](Cc3ccncc3)NC(=O)CSC[C@@H](C(=O)N[C@@H](CO)C(N)=O)NC(=O)[C@H](CCC(=O)O)NC(=O)[C@H](C(C)C)NC(=O)[C@H](CC3CCCCC3)NC(=O)[C@H](CCN)NC(=O)[C@@H](CC(C)C)NC(=O)[C@H](CCCN)NC(=O)[C@H](Cc3ccc(OCC(=O)O)cc3)NC(=O)[C@H](Cc3ccc(-c4ccccc4)cc3)NC(=O)[C@H](Cc3ccc(OCC(=O)O)cc3)NC2=O)c1 [Compound 2311] ({CH2CO}-[4Pal][Phe(4-COOH)]D[Phe(3-Me)]Y(Carboxymethyl)[Bip]Y(Carboxymethyl)[Orn][dL][Dab][Cha]VECS-NH2; thioether N-14)
3,7 nM,CC(C)C[C@H]1NC(=O)[C@H](CCN)NC(=O)[C@H](C(C)C)NC(=O)[C@H](Cc2ccc(-c3ccccc3)cc2)NC(=O)[C@H](C(C)C)NC(=O)[C@H](Cc2c[nH]c3ccccc23)NC(=O)[C@H](CC(=O)O)NC(=O)[C@H](Cc2ccc(OCC(=O)O)cc2)NC(=O)[C@H](Cc2ccsc2)NC(=O)CSC[C@@H](C(N)=O)NC(=O)[C@H](CCCCN)NC(=O)[C@H](C(C)C)NC(=O)[C@H](CC2CCCCC2)NC(=O)[C@H](CCN)NC1=O [Compound 2614] ({CH2CO}-[3Thi]Y(Carboxymethyl)DWV[Bip]V[Dab][dL][Dab][Cha]VKC-NH2; thioether N-14)
4,3.4 nM,C#CCOc1ccc(C[C@@H]2NC(=O)[C@H](Cc3cccc(C)c3)NC(=O)[C@H](CC(=O)O)NC(=O)[C@H](Cc3ccc(OCC(=O)O)cc3)NC(=O)[C@H](CC)NC(=O)CSC[C@@H](C(=O)N[C@@H](CCN)C(N)=O)NC(=O)[C@H](CCC(=O)O)NC(=O)[C@H](C(C)C)NC(=O)[C@H](CC3CCCCC3)NC(=O)[C@H](CCN)NC(=O)[C@@H](CC(C)C)NC(=O)[C@H](CCCN)NC(=O)[C@H](Cc3ccc(OCC(=O)O)cc3)NC(=O)[C@H](Cc3ccc(-c4ccccc4)cc3)NC2=O)cc1 [Compound 1840] ({CH2CO}-[Abu]Y(Carboxymethyl)D[Phe(3-Me)]Y(Propargyl)[Bip]Y(Carboxymethyl)[Orn][dL][Dab][Cha]VEC[Dab]-NH2; thioether N-14)
5,1.2 nM,CC(C)C[C@H]1NC(=O)[C@H](CCCN)NC(=O)[C@H](Cc2ccc(C(=O)O)cc2)NC(=O)[C@H](Cc2ccc(-c3ccccc3)cc2)NC(=O)[C@H](Cc2ccc(C(=O)O)cc2)NC(=O)[C@H](Cc2cccc(C(F)(F)F)c2)NC(=O)[C@H](CC(=O)O)NC(=O)[C@H](Cc2ccc(C(=O)O)cc2)NC(=O)[C@H](CN2CCOCC2)NC(=O)CSC[C@@H](C(=O)N[C@@H](CCN)C(N)=O)NC(=O)[C@H](CO)NC(=O)[C@H](C(C)(C)O)NC(=O)[C@H](CC2CCCCC2)NC(=O)[C@H](CCN)NC1=O [Example 2710] ({CH2CO}-[Ala(morpholin-4-yl)][Phe(4-COOH)]D[Phe(3-CF3)][Phe(4-COOH)][Bip][Phe(4-COOH)][Orn][dL][Dab][Cha][Val(3-OH)]SC[Dab]-NH2; thioether N-14)
6,0.6 nM,CC(C)C[C@H]1NC(=O)[C@H](CCCN)NC(=O)[C@H](Cc2ccc(C(=O)O)cc2)NC(=O)[C@H](Cc2ccc(-c3ccccc3)cc2)NC(=O)[C@H](Cc2ccc(C(=O)O)cc2)NC(=O)[C@H](Cc2cccc(C(F)(F)F)c2)NC(=O)[C@H](CC(=O)O)NC(=O)[C@H](Cc2ccc(C(=O)O)cc2)NC(=O)[C@H]([C@H](C)N)NC(=O)CSC[C@@H](C(=O)N[C@@H](CCN)C(N)=O)NC(=O)[C@H](CO)NC(=O)[C@H](C(C)(C)C)NC(=O)[C@H](CC2CCCCC2)NC(=O)[C@H](CCN)NC1=O [Example 2708] ({CH2CO}-[Abu(3S-NH2)][Phe(4-COOH)]D[Phe(3-CF3)][Phe(4-COOH)][Bip][Phe(4-COOH)][Orn][dL][Dab][Cha][Tle]SC[Dab]-NH2; thioether N-14)
